Assay results: US20150231167A1, “TREATMENT OF HEMATOLOGICAL NEOPLASMS” (THOMAS JEFFERSON UNIVERSITY, priority 2012, published 2015)

Key:
Stat5a = target: T1, Stat5a (Homo sapiens, UniProt P42229); test: Stat5a dimerization, co-immunoprecipitation of FLAG- and MYC-tagged Stat5a in PC-3 cells; format: cell-based; details: pre-treated 2 h, hPrl 10 nM 30 minutes
T1 construct: expressed in transfected cells; host or cells: PC-3
T1 sequence (P42229 1-794): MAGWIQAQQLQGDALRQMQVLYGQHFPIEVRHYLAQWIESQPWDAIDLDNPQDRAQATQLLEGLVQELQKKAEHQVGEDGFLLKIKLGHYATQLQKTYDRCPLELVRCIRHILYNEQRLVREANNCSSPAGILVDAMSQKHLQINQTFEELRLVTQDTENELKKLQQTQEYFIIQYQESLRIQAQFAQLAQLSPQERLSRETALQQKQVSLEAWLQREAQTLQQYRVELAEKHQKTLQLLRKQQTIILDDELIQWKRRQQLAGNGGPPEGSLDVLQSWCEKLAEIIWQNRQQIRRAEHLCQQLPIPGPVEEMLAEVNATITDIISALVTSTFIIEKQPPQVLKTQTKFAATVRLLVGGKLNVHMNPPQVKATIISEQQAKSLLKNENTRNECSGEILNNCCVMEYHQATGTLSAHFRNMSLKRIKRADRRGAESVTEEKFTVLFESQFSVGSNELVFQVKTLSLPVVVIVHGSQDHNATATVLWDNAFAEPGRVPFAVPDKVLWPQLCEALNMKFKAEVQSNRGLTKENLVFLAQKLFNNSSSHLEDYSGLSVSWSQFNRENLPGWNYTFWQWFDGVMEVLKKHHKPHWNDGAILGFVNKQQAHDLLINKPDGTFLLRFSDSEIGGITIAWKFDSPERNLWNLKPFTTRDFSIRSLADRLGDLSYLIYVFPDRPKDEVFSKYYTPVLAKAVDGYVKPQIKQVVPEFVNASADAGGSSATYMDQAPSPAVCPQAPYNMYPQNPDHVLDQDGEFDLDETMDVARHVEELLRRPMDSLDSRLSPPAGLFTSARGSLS
Protocol: FLAG-tagged Stat5a and MYC-tagged Stat5a were generated as follows by standard molecular biology cloning techniques. Plasmid pCMV3-FLAG-Stat5a, pCMV3-MYC-Stat5a and pPr1R were co-transfected using FuGENE6 (Roche) into PC-3 cells (2 μg of each plasmid per 1×10^7 cells). The cells were starved for 20 hours, pre-treated with N^6-benzyladenosine for 2 h, then stimulated with hPrl (10 nM) in RPMI 1640 without serum for 30 minutes. The cell lysates were immunoprecipitated with 25 μl anti-FLAG M2 […] affinity gel (2 μg/ml, Sigma), anti-MYC pAb (1 μg/ml, Upstate) or normal rabbit serum (NRS). The primary antibodies were used in the immunoblottings at the following concentrations: anti-FLAG pAb (1:1000; Stratagene), anti-MYC mAb (1:1000; Sigma), anti-Stat5a/b mAb (1:250) (Transduction Laboratories) detected by horseradish peroxidase-conjugated secondary antibodies.
Lanes 1, 2, 4, 6 and 8 represent cells stimulated with human prolactin (Prl) for 30 minutes which induces dimerization of Stat5. Two hours prior to Prl-stimulation, the cells had been treated with DMSO (lanes 1-4), the control compound C5 (lanes 5 and 6) or N^6-benzyladenosine (lanes 7 and 8) to test whether the Stat5a/b-inhibitor compound, N6BA, would be able to inhibit dimerization of Stat5. […] It should be noted the drug effect in this study was not due to cell apoptosis induction, as the treatment time was only 2 hours.

Stat5 = Stat5 transcriptional activity, beta-casein promoter luciferase reporter gene assay in PC-3 cells; format: cell-based, human; details: pretreated 1 hour, 10 nM hPrl for 16 hours, firefly/Renilla luciferase
Protocol: Cells of the human prostate cell line PC-3 were plated into 96-well plate at the density of 2×10^5 per well. After 24 hours of plating, cells were transiently co-transfected using FuGENE6 (Roche) with 0.25 μg of each of pStat5a or pStat5b, pPr1R (prolactin receptor) plasmids, 0.5 μg of pBeta-casein-luc and 0.025 μg of pRL-TK (Renilla luciferase plasmids as an internal control. After another 24 hours of transfection, the cells were starved in serum-free medium for 8 hours, pretreated with N^6-benzyladenosine (“N6BA”), or the control compound C5, for 1 hour, and then stimulated with 10 nM human prolactin (hPrl) in the serum-free medium for additional 16 hours. The lysates were assayed for firefly and Renilla luciferase activities using the Dual-Luciferase reporter assay system (Promega). Three independent experiments were carried out in triplicate. The firefly luciferase activity was normalized to the Renilla luciferase activity of the same sample, and the mean was calculated from the parallels. From the mean values of each independent run, the overall mean and its standard deviation (S.D.) were calculated.

Stat5a/b [1] = test: Western blot of Stat5a/b phosphorylation in K562 cells; format: cell-based, human
Protocol: (§1) Exponentially growing K562 cells were treated with 5 μM N6BAP or pimozide for 3 h after which the cells were harvested. Pimozide is a Stat5 inhibitor in leukemia cells (Nelson et al., Blood 117:3421-3429, 2011). Cell pellets were solubilized in lysis buffer [10 mM Tris-HCl (pH 7.6), 5 mM EDTA, 50 mM sodium chloride, 30 mM sodium pyrophosphate, 50 mM sodium fluoride, 1 mM sodium orthovanadate, 1% Triton X-100, 1 mM phenylmethylsulfonyl fluoride, 5 μg/ml aprotinin, 1 μg/ml pepstatin A, and 2 μg/ml leupeptin], rotated end-over-end at 4° C. for 60 min, and insoluble material was pelleted at 12,000×g for 30 min at 4° C. The protein concentrations of clarified cell lysates were determined by simplified Bradford method (Bio-Rad Laboratories, Hercules, Calif.). Western blotting of the lysates was carried out using, as primary antibodies, the following antibodies at the following concentrations: anti-phosphotyrosine-Stat5a/b (Y694/Y699) mAb (1 μg/ml, Advantex BioReagents, Conroe, Tex.), anti-Stat5ab mAb (1:250; BD Biosciences, San Jose, Calif.), anti-human Abl mAb (Calbiochem) or anti-phosphotyrosine mAb (Millipore).
(§2) Exponentially growing K562 cells were treated with N6BA for 3 h or 6 h after which the cells were harvested. […] The protein concentrations of clarified cell lysates were determined by simplified Bradford method (Bio-Rad Laboratories, Hercules, Calif.). […]

K562 cells = test: K562 cell viability, MTS metabolic activity assay; format: cell-based, human; details: 72 h at 3.1, 6.3, 12.5, 25 and 50 μM
Protocol: (§3) Exponentially growing K562 cells were treated with N6BAP or the control compound C5 for 72 h at 3.1, 6.3, 12.5, 25 and 50 μM indicated concentrations. The cell viability was assessed by MTS ([…]) metabolic activity assay (CellTiter 96® AQueous Assay kit).
as §3, with “K562 leukemia” for “K562”, “N6BA” for “N6BAP”, “μM” for “μM indicated”

Stat5a/b [2] = test: Western blot of Stat5a/b phosphorylation in parental KCL22 cells (KCL22S); format: cell-based, human; details: various concentrations, 6 h or 16 h
Protocol: (§4) Exponentially growing KCL22 and KCL22R cells were treated with N6BAP at various concentrations for 6 h or 16 h after which the cells were harvested. Cell pellets were solubilized in lysis buffer [10 mM Tris-HCl (pH 7.6), 5 mM EDTA, 50 mM sodium chloride, 30 mM sodium pyrophosphate, 50 mM sodium fluoride, 1 mM sodium orthovanadate, 1% Triton X-100, 1 mM phenylmethylsulfonyl fluoride, 5 μg/ml aprotinin, 1 μg/ml pepstatin A, and 2 μg/ml leupeptin], rotated end-over-end at 4° C. for 60 min, and insoluble material was pelleted at 12,000×g for 30 min at 4° C. The protein concentrations of clarified cell lysates were determined by simplified Bradford method (Bio-Rad Laboratories, Hercules, Calif.). Western blotting of the lysates was carried out using, as primary antibodies, the following antibodies at the following concentrations: anti-phosphotyrosine-Stat5a/b (Y694/Y699) mAb (1 μg/ml, Advantex BioReagents, Conroe, Tex.), anti-Stat5ab mAb (1:250; BD Biosciences, San Jose, Calif.) or anti-actin pAb (Sigma). Anti-actin was included as a control.
as §2

Stat5a/b [3] = test: Western blot of Stat5a/b phosphorylation in imatinib-resistant KCL22 cells (KCL22R); format: cell-based, human; details: various concentrations, 6 h or 16 h
Protocol: as §4, §2

[4] = test system: imatinib-resistant K562 line; test: Growth of imatinib-resistant K562 line, trypan blue viable cell count; format: cell-based, human; details: 5 μM; 24, 48, 72 and 96 hours
Protocol: (§5) The K562 parent cell line and an imatinib-resistant K562 line were cultured in the presence of culture medium without any compounds (Ctrl), DMSO (0.1%), the control compound C5 (5 μM) or N6BAP at 5 μM concentration. The cells were harvested at 24, 48, 72 and 96 hours, trypan blue stained and the numbers of viable cells were counted for each time-point.

[5] = test system: BCR-ABL-driven human leukemic cell lines; test: Cell cycle progression analysis (data not shown); format: cell-based
KCL22 T315I = test: Growth of imatinib-resistant KCL22 T315I line, trypan blue viable cell count; format: cell-based, human; details: 5 μM; 24, 48, 72 and 96 hours
Protocol: (§6) KKCL22 and BV173 parent cell lines, and imatinib-resistant counterpart cell lines, were cultured in the presence culture medium without any compounds (Ctrl), DMSO (0.1%), the control compound C5 (5 μM) or N6BAP at 5 μM concentration. The imatinib-resistant lines are characterizes by the bcr-abl T315I mutation, which provides imatinib resistance. The cells were harvested at 24, 48, 72 and 96 hours, trypan blue stained and the numbers of viable cells were counted for each time-point.

BV173 = test: Growth of BV173 parent cell line, trypan blue viable cell count; format: cell-based, human; details: 5 μM; 24, 48, 72 and 96 hours
Protocol: as §6

BCR-ABL = target: T2, BCR-ABL (Homo sapiens, UniProt P00519); test: Western blot of BCR-ABL phosphorylation and protein levels in K562 cells; format: cell-based; details: 5 μM, 3 h
T2 construct: endogenous in cells; host or cells: K562; the other entry of the earlier key: BCR (P11274, Breakpoint cluster region protein)
Protocol: as §1

BV173 T315I = test: Growth of imatinib-resistant BV173 T315I line, trypan blue viable cell count; format: cell-based, human; details: 5 μM; 24, 48, 72 and 96 hours
Protocol: as §6

K562 parent cell line = test: Growth of K562 parent cell line, trypan blue viable cell count; format: cell-based, human; details: 5 μM; 24, 48, 72 and 96 hours
Protocol: as §5

KCL22 = test: Growth of KCL22 parent cell line, trypan blue viable cell count; format: cell-based, human; details: 5 μM; 24, 48, 72 and 96 hours
Protocol: as §6

T2 sequence (P00519 with tags, fused parts or gaps): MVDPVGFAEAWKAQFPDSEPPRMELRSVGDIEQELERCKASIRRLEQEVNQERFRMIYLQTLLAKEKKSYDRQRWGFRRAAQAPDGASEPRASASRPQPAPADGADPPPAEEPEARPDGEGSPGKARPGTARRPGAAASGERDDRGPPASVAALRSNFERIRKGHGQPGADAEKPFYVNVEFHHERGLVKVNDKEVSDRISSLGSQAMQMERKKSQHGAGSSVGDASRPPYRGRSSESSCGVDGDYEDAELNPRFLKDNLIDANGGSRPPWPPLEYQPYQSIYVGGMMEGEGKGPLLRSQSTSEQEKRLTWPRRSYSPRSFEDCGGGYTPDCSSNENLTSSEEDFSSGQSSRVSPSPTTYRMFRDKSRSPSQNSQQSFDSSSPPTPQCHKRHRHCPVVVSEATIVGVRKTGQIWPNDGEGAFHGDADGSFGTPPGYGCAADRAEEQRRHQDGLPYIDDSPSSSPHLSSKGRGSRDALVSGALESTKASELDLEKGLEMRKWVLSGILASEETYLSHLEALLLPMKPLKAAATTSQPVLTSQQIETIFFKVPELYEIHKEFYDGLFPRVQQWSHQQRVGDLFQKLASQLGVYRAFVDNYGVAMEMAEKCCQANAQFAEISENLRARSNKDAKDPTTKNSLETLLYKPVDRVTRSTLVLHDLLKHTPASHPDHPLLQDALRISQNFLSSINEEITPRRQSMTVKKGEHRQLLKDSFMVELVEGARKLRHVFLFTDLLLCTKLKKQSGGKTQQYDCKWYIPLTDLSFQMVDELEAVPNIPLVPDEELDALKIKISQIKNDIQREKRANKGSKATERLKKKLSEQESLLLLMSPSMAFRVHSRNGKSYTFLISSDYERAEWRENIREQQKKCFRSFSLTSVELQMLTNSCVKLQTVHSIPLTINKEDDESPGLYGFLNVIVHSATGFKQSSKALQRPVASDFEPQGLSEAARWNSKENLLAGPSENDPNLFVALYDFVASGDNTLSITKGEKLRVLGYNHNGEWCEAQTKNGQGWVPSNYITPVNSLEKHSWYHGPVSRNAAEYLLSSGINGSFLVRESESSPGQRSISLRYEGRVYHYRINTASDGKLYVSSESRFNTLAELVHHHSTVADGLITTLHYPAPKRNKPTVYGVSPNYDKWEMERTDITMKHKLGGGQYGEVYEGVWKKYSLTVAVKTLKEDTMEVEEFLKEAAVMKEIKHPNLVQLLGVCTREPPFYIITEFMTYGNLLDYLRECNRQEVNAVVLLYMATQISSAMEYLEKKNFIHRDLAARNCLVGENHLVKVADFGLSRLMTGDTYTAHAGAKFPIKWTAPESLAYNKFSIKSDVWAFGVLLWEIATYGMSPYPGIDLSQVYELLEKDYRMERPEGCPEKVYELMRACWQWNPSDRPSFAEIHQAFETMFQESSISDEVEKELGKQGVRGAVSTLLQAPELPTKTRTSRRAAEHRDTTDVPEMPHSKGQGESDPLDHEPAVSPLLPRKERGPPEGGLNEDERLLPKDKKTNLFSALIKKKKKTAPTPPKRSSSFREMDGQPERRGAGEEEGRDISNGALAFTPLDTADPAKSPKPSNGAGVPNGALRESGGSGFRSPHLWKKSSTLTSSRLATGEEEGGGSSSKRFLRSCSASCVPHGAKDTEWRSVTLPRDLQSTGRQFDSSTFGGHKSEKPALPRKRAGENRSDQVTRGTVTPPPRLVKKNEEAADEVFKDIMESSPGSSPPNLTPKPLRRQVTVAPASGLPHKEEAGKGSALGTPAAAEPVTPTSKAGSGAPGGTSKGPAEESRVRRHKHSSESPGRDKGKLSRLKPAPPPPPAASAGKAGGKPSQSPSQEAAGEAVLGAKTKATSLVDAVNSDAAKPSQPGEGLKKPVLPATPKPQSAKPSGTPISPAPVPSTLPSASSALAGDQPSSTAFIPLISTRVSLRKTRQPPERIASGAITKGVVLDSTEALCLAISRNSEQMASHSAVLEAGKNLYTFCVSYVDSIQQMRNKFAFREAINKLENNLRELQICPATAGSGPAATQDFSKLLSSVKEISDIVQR

## Nc1nc(SCc2cccnc2)[nH]c(=O)c1NC(=O)c1ccco1 [C5, reference compound]
Stat5a
  Stat5a dimerization: did not inhibit dimerization of Stat5a

## OC[C@H]1O[C@@H](n2cnc3c(NCc4ccccc4)ncnc32)[C@H](O)[C@@H]1O [N6BA, N^6-benzyladenosine]
Stat5
  transcriptional activity of Stat5: inhibits transcriptional activity of Stat5
Stat5a/b [1]; indicated concentrations, 3 h or 6 h
  phosphorylation of Stat5: inhibits phosphorylation of Stat5
K562 cells
  number of viable K562 cells (MTS): decreased the number of K562 cells
Stat5a/b [2]
  phosphorylation of Stat5: inhibits phosphorylation of Stat5
Stat5a/b [3]
  phosphorylation of Stat5: inhibits phosphorylation of Stat5
Stat5a
  Stat5a dimerization: effectively inhibited Stat5a dimerization

## O=P(O)(O)OC[C@H]1O[C@@H](n2cnc3c(NCc4ccccc4)ncnc32)[C@H](O)[C@@H]1O [N6BAP, N^6-benzyladenosine-5′-monophosphate]
[4]
  growth of the imatinib-resistant K562 cell line: blocked the growth of the imatinib-resistant cell line
Stat5a/b [1]; 5 μM, 3 h, Western blot anti-pYStat5
  phosphorylation of Stat5: blocks phosphorylation of Stat5
K562 cells
  number of viable K562 cells (MTS): reduces the number of viable K562 human leukemia cells
Stat5a/b [2]
  phosphorylation of Stat5: blocks phosphorylation of Stat5
Stat5a/b [3]
  phosphorylation of Stat5: blocks phosphorylation of Stat5
[5]
  apoptotic death (cell cycle progression analysis): induced apoptotic death
KCL22 T315I
  growth of imatinib-resistant KCL22 T315I: blocked the growth of the corresponding imatinib-resistant cell lines
BV173
  growth of parental cell line BV173: blocked not only the growth of the parental cell lines
BCR-ABL
  BCR-ABL protein levels: did not affect
BCR-ABL; anti-phosphotyrosine mAb
  phosphorylation of BCR-ABL: did not affect phosphorylation of BCR-ABL
BV173 T315I
  growth of imatinib-resistant BV173 T315I: blocked the growth of the corresponding imatinib-resistant cell lines
K562 parent cell line
  growth of the parental K562 line: blocked not only the growth of the parental K562 line
KCL22
  growth of parental cell line KCL22: blocked not only the growth of the parental cell lines
